Patent publication US9487481B2, “Bicyclic compounds” (BRISTOL-MYERS SQUIBB COMPANY, priority 2013, dated 2016)
Where “and” joins values, the source holds several entries; their conditions need not be identical. Equal values may be shown once. One block for each molecule: values may come before it.

Tests used:
mice = assay: Pulmonary Toxicity Assay (BAL protein); assay type: in vivo; details: oral, 30 mg/kg, 24 hr post-dose; for Relative BAL protein vs. control: >1 = increased pulmonary toxicity
Experimental: The analysis of protein levels in bronchoalveolar lavage (BAL) fluid obtained from an animal were used to gauge pulmonary side effects. Increased levels of protein in BAL fluid were indicative of undesired pulmonary effects, such as pulmonary edema. Example 1, Example 2, Compound 6, Compound 8, and Compound 11 were administered orally to mice at a dose of 30 mg/kg. At 24 hours post dose, the mice were euthanized with intraperitoneal barbiturate overdose. The animals were placed in a supine position, a skin incision was made and blunt dissection followed to expose the trachea. The trachea was incised and a catheter was inserted 4-6 mm into the trachea. Phosphate-buffered saline (PBS; 1 mL/mouse) was infused into the lungs and then aspirated. The concentration of the BAL protein in the recovered BAL fluid was determined on an ADVIA® 1800 Chemistry Analyzer (Siemens Healthcare Diagnostics). The results represent the average results of all animals within each treatment group (n=2-4).
A value for the relative BAL protein versus control of greater than 1 indicated an increase in pulmonary toxicity compared to the administration of vehicle only. In this study, as reported in Table 5, the administration of Examples 1 and 2 gave relative BAL protein levels of 0.99 and 0.96, indicating no increase in the pulmonary toxicity. The administration of Compound 8 gave a relative BAL protein level of 1.03, which indicated slight or no increase in pulmonary toxicity. In contrast, administration of Compound 6 and Compound 11 gave relative BAL protein levels of 1.94 and 1.33, indicating increased pulmonary toxicity.

circulating lymphocytes [1] = assay: Mouse Blood Lymphocyte Reduction (BLR) Assay; assay type: in vivo; details: BALB/c mice, oral, 1 mg/kg, 24 hr post-dose
Experimental: (§1) Lewis rats were dosed orally with vehicle alone (polyethylene glycol 300, “PEG300”) or with 2-amino-2-[2-(4-octylphenyl)ethyl]-1,3-propanediol, hydrochloride (CAS: 162359-56-0) as a solution in the vehicle at doses of 0.1 mg/kg, 0.5 mg/kg and 3.0 mg/kg adjusted to reflect the free amount of test article. The results are provided in Table 4a and the level of lymphocyte reduction at 24 hours post-dose was maximal at 3.0 mg/kg. The percent reduction in lymphocytes is dose-related but the relationship is not linear, with non-proportional increases in dose being required to elicit sequentially greater reductions in lymphocyte counts. […] BALB/c mice were dosed orally with vehicle alone (polyethylene glycol 300, “PEG300”) or with Example 1, Example 2, Compound 6, Compound 8, or Comparative Compound 11. Compounds were dosed as a solution or suspension in the vehicle, adjusted to reflect the free amount of test article in the event that salt forms are utilized. Blood was drawn at 24 hr and blood lymphocyte counts were determined on an ADVIA® 120 Hematology Analyzer (Siemens Healthcare Diagnostics). The results were measured as a reduction in the percentage of circulating lymphocytes as compared to the vehicle treated group at the time of measurement. The results represent the average results of all animals within each treatment group (n=2-4).

CB-17 SCID mice = assay: Mouse T Cell Transfer Induced Colitis Assay; assay type: in vivo; details: q.o.d. oral; for Inflammation/Damage (Histology), Mean: 6 wk
Experimental: The mouse T Cell transfer induced colitis assay is an animal model for human colitis.
Colitis was induced in CB-17 SCID mice by the adoptive transfer of FACS sorted CD4^+CD45RB^high T cells from BALB/c mice (3×10^5/mouse, i.p.). Disease activities were monitored once a week for the initial 3 weeks and 3×/week for the subsequent weeks on the basis of body weight, soft stool or diarrhea, and anorectal prolapse. Animals were dosed orally every other day (q.o.d.) with the test article or vehicle starting from the day of T cell transfer. Mice were sacrificed 6 wk after T cell reconstitution and analyzed for bowel inflammation based on histological examination of H&E stained colon tissues. All procedures involving animals were reviewed and approved by the Institutional Animal Care Use Committee.
Example 2 was tested in the mouse T cell transfer induced colitis model described hereinabove and the results are shown in Table 8.

Male MRL/lpr mice = assay: MRL/lpr Mouse Model of Spontaneous Lupus Erythematosus Assay; assay type: in vivo
Experimental: MRL/lpr mouse model of spontaneous lupus erythematosus assay is an animal model for spontaneous lupus erythematosus.
Male MRL/lpr mice (14 weeks old; Jackson Laboratories; n=12-13) were orally dosed with Example 2 (as a solution in vehicle) or vehicle alone (polyethylene glycol 300) twice a week for 11 weeks starting on day 0. Urine protein levels (by Albustix) were measured on day 0 and throughout the study. […] Additional groups of mice received a daily oral dose of dexamethasone (Dex) either independently or in combination with twice weekly dosing with Example 2. Urine protein levels (by Albustix) were measured on day 0 and throughout the study. […] All procedures involving animals were reviewed and approved by the Institutional Animal Care Use Committee.
Example 2 was tested in the MRL/lpr mouse model of spontaneous lupus erythematosus assay described hereinabove and the results are shown in Table 9.
Example 2 and dexamethasone (Dex) either independently or in combination, were tested in the MRL/lpr mouse model of spontaneous lupus erythematosus assay described hereinabove and the results are shown in Table 10.

Male Lewis rats = assay: Rat Adjuvant Induced Arthritis Assay (AA); assay type: in vivo; details: prophylactic
Experimental: The rat adjuvant-induced arthritis model is an animal model for human rheumatoid arthritis.
Male Lewis rats (150-175 g; Harlan, n=8 treatment group) were immunized at the base of the tail with 100 μl of 10 mg/ml freshly ground Mycobacterium butyricum (Difco Laboratories) in incomplete Freund's adjuvant (sigma). Animals were dosed once daily with the test article (as a solution or suspension in the vehicle) or vehicle alone (polyethylene glycol 300, “PEG300”) starting from the day of immunization. The volumes of their hind paws were measured in a water displacement plethysmometer (Ugo Basile, Italy). The baseline paw measurements were taken before onset of the disease (between day 7 to day 10). The paw measurements were then taken three times a week until the end of the study on day 20 to 21. All procedures involving animals were reviewed and approved by the Institutional Animal Care Use Committee.
Example 2 of the present invention was tested in the Rat Adjuvant Induced Arthritis assay described hereinabove and the results are shown in Table 7.

S1P1 [2] = molecular target: T1, S1P1 (Homo sapiens, UniProt P21453); assay: Receptor [35S] GTPγS Binding Assay, S1P1/CHO cell membranes; assay type: biochemical; details: membranes prepared from S1P1/CHO cells
EDG3 equivalent S1P3 = EDG3 equivalent S1P3 (Homo sapiens, UniProt Q99500); assay: Receptor [35S] GTPγS Binding Assay, EDG3-Ga15-bla HEK293T cell membranes; assay type: biochemical; details: membranes prepared from EDG3-Ga15-bla HEK293T cells
S1P1 [3] = molecular target: T1, S1P1; assay: S1P1 Binding Assay (33P-S1P ligand, CHO membranes); details: membranes from CHO cells expressing human S1P1, 0.03 nM 33P-S1P
circulating lymphocytes [4] = assay: Rat Blood Lymphocyte Reduction (BLR) Assay; assay type: in vivo; details: Lewis rats, oral, 24 hr post-dose; for Percent reduction vs. control (rat blood lymphocytes): hydrochloride
Experimental: as §1

GFP-tagged S1P1 receptor = molecular target: T2, GFP-tagged S1P1 receptor (Homo sapiens, UniProt P21453); assay: S1P1 Receptor Internalization Assay; assay type: cell-based; details: CHO-K1 cells expressing GFP-tagged S1P1, 45 min
T2 construct: expressed in transfected cells; host or cells: CHO-K1 cells
Experimental: CHO-K1 cells expressing a GFP-tagged S1P1 receptor were plated in 384-well poly-D-lysine coated tissue culture plates at 4×10^3 cells/well in 50 μl assay media (F12 with L-glutamine, 10% charcoal/dextran-treated FBS, 1× penicillin-streptomycin, 1M HEPES). Cell plates were incubated overnight at 37° C./5% CO2. Test compound were introduced to the cell plate from a compound source plate at 11 point, 3 fold serial dilutions and then the assay plates were incubated at 37° C./5% CO2 for 45 min. Cells were fixed and stained with 6% formaldehyde and 15 μg/ml Hoechst dye in PBS (Ca^2+/Mg^2+ free) at room temperature for 15 minutes. Cell plates were washed 4 times with PBS (Ca^2+/Mg^2+ free) with addition of 50 μl/PBS prior to plate sealing. Images were acquired by the Cellomics ARRAYSCAN® VTI high content imager. Data analysis for EC50 determination relative to internal control compound was accomplished using the Compartmental Analysis BioApplication on the Array Scan. The EC50 is defined as the agonist concentration that corresponds to 50% of the Ymax (maximal response) obtained for each individual compound tested and was quantified using the 4 parameter logistic equation to fit the data.

T1 sequence (P21453 whole entry): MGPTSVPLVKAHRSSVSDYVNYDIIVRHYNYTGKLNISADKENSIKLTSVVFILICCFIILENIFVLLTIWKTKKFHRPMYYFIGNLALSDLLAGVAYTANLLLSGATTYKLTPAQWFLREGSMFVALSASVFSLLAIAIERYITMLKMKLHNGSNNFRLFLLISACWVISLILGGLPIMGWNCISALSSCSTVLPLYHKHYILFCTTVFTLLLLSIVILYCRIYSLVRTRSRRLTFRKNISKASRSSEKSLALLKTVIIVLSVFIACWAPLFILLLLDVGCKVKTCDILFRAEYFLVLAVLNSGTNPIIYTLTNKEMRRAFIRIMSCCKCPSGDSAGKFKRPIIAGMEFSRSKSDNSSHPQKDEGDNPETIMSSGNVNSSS
Chain of EDG3 equivalent S1P3 (Q99500 whole entry): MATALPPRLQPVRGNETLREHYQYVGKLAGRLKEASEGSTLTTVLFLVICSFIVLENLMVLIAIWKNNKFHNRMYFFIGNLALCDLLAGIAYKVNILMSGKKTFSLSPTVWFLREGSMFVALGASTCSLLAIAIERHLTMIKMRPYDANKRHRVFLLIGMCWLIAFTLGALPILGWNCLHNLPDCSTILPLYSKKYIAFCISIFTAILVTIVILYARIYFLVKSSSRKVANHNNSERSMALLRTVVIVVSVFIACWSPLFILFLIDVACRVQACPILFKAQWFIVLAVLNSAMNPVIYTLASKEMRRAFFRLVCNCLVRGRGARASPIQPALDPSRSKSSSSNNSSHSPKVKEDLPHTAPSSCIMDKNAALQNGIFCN
T2 sequence (P21453 whole entry): as the sequence (P21453 whole entry) above

SMILES: CCCCCC[C@H]1CCc2cc([C@H]3CC[C@](N)(CO)C3)ccc2C1 [Compound 8, ((1R,3S)-1-amino-3-((S)-6-hexyl-5,6,7,8-tetrahydronaphthalen-2-yl)cyclopentyl)methanol]
Mouse BAL protein level, Compound Mean (mice): 7.5 mg/dL
Relative BAL protein vs. control (mice): 1.03
Mouse blood lymphocytes, Compound Mean (circulating lymphocytes [1]): 2.4
Percent reduction vs. control (mouse blood lymphocytes) (circulating lymphocytes [1]): 59%

SMILES: CCCCCC[C@@H]1CCc2cc([C@H]3CC[C@](N)(CO)C3)ccc2C1 (single isomer, unassigned) [Example 2]
Week 6 Percent Body Weight Changes, Mean (from 100%) (CB-17 SCID mice; 1 mg/kg): 100% → 98.7%
Inflammation/Damage (Histology), Mean (CB-17 SCID mice; 1 mg/kg): 5.46
Week 6 Percent Body Weight Changes, Mean (from 100%) (CB-17 SCID mice; 5 mg/kg): 100% → 103.7%
Inflammation/Damage (Histology), Mean (CB-17 SCID mice; 5 mg/kg): 3.71
% Mice with Proteinurea > 100 mg/dL (Male MRL/lpr mice; 24 weeks of age, 2 mg/kg, 2x week oral): 20%
% Mice with Proteinurea > 100 mg/dL (Male MRL/lpr mice; 25 weeks of age, 0.05 mg/kg, 2x week oral): 25%
% Mice with Proteinurea > 100 mg/dL (Male MRL/lpr mice; 25 weeks of age, 0.4 mg/kg, 2x week oral): 17%
% Mice with Proteinurea > 100 mg/dL (Male MRL/lpr mice; 25 weeks of age, 2 mg/kg, 2x week oral): 10%
Paw Swelling on Day 20, Mean (Male Lewis rats; 0.15 mg/kg once daily oral): 1.64 mL
Paw Swelling on Day 20, Mean (Male Lewis rats; 0.5 mg/kg once daily oral): 0.70 mL
Paw Swelling on Day 20, Mean (Male Lewis rats; 1.5 mg/kg once daily oral): 0.16 mL
Mouse BAL protein level, Compound Mean (mice): 8.0 mg/dL
Relative BAL protein vs. control (mice): 0.96
Mouse blood lymphocytes, Compound Mean (circulating lymphocytes [1]): 0.54
Percent reduction vs. control (mouse blood lymphocytes) (circulating lymphocytes [1]): 90%

SMILES: C[C@@H]1C[C@H]2[C@@H]3CCC4=CC(=O)C=C[C@]4(C)[C@@]3(F)[C@@H](O)C[C@]2(C)[C@@]1(O)C(=O)CO [Dex, dexamethasone, reference compound]
% Mice with Proteinurea > 100 mg/dL (Male MRL/lpr mice; 24 weeks of age, 0.1 mg/kg q.d. oral): 50%
% Mice with Proteinurea > 100 mg/dL (Male MRL/lpr mice; 24 weeks of age, 0.5 mg/kg q.d. oral): 10%

EC50 (S1P1 [2]): 0.9 nM
EC50 (EDG3 equivalent S1P3): > 62500 nM
IC50 (S1P1 [3]): 0.01 nM
SMILES: CCCCCC[C@@H]1CCc2cc([C@H]3CC[C@](N)(COP(=O)(O)O)C3)ccc2C1 [Example 10, (1R,3 S)-1-Amino-3-((R)-6-hexyl-5,6,7,8-tetrahydronaphthalen-2-yl) cyclopentyl)methyl dihydrogen phosphate]

SMILES: CCCCCCCCc1ccc(CCC(N)(CO)CO)cc1.Cl [2-amino-2-[2-(4-octylphenyl)ethyl]-1,3-propanediol, hydrochloride]
Rat blood lymphocytes, Compound Mean (circulating lymphocytes [4]; 0.1 mg/kg): 2.78
Percent reduction vs. control (rat blood lymphocytes) (circulating lymphocytes [4]; 0.1 mg/kg): 69%
Rat blood lymphocytes, Compound Mean (circulating lymphocytes [4]; 0.5 mg/kg): 1.64
Percent reduction vs. control (rat blood lymphocytes) (circulating lymphocytes [4]; 0.5 mg/kg): 82%
Rat blood lymphocytes, Compound Mean (circulating lymphocytes [4]; 3.0 mg/kg): 1.02
Percent reduction vs. control (rat blood lymphocytes) (circulating lymphocytes [4]; 3.0 mg/kg): 89%

SMILES: CCCCCC[C@@H]1CCc2cc([C@@H]3CC[C@](N)(COP(=O)(O)O)C3)ccc2C1 [Example 9, ((1R,3R)-1-Amino-3-((R)-6-hexyl-5,6,7,8-tetrahydronaphthalen-2-yl)cyclopentyl)methyl dihydrogen phosphate]
EC50 (GFP-tagged S1P1 receptor): 361 nM

SMILES: CCCCCOc1ccc2cc([C@@H]3CC[C@](N)(CO)C3)ccc2c1 [Comparative Compound 11, reference compound]
Mouse BAL protein level, Compound Mean (mice): 13.3 mg/dL
Relative BAL protein vs. control (mice): 1.33
Mouse blood lymphocytes, Compound Mean (circulating lymphocytes [1]): 2.18
Percent reduction vs. control (mouse blood lymphocytes) (circulating lymphocytes [1]): 52%

SMILES: CCCCCC[C@@H]1CCc2cc([C@@H]3CC[C@](N)(CO)C3)ccc2C1 (single isomer, unassigned) [Example 1]
Mouse BAL protein level, Compound Mean (mice): 8.25 mg/dL
Relative BAL protein vs. control (mice): 0.99
Mouse blood lymphocytes, Compound Mean (circulating lymphocytes [1]): 0.7
Percent reduction vs. control (mouse blood lymphocytes) (circulating lymphocytes [1]): 88%

SMILES: CCCCCC[C@H]1CCc2cc([C@@H]3CC[C@](N)(CO)C3)ccc2C1 [Compound 6, ((1R,3R)-1-amino-3-((S)-6-hexyl-5,6,7,8-tetrahydronaphthalen-2-yl)cyclopentyl)methanol]
Mouse BAL protein level, Compound Mean (mice): 14.3 mg/dL
Relative BAL protein vs. control (mice): 1.94 and 1.96
Mouse blood lymphocytes, Compound Mean (circulating lymphocytes [1]): 1.2
Percent reduction vs. control (mouse blood lymphocytes) (circulating lymphocytes [1]): 78%
